Test results reported in patent US11532406B2, “High specific activity preparation of F-18 tetrafluoroborate” (Mayo Foundation for Medical Education and Research, priority 2016, dated 2022).
Where “and” joins values, the source holds several entries; their conditions need not be identical. Identical values can stand only once. Marks after values point to notes of the source that are not given here.

Key:
[1] = Stability of ^18F-TFB (radio-TLC and anion chromatography HPLC); assay type: physicochemical
Experimental: The product ^18F-TFB was analyzed for radiochemical purity by both radio-TLC (MeOH, Rf=0.8-0.85) and anion chromatography HPLC with radioactivity detector (Dionex IC-2100, AS19 analytical column: 4.7×150 mm; eluent: 35 mM KOH; sample volume: 25.L; flow rate: 1 mL/min; retention times: 7.6 min for ^18F-TFB, […]). Chemical purity and specific activity were analyzed by anion chromatography HPLC (retention times: 3.5 min for fluoride, 4.3 min for chloride, and 7.6 min for BF4—). Residual organic solvents were analyzed by GC (helium carrier gas flow at 10 cc/min through a MXTWAX column (Restek, Bellefonte, Pa., 0.53 mm ID, 30 m length)).
After the synthesis, a sample was diluted with water for the analysis. With the eluent of methanol on silica gel plate, purities of >98% were obtained on the radio-TLC scanner.
^18F-TFB was prepared and formulated in sterile 0.9% NaCl under cGMP conditions as previously described (12). Decay-corrected radiochemical yields of 32±2% and radiochemical purities (RCPs) >98% were obtained. Specific radioactivity of 2.2±0.9 GBq/μmol was achieved from starting ^18F-fluoride radioactivity of 20-31 GBq. In vitro RCP remained >96% up to 8 h at room temperature.

[2] = Measurements in venous blood and urine samples, HPLC metabolite analysis; assay type: in vivo, human; settings: for Urine (% Dose), Accumulative: end of study (~250 min)
Experimental: Urine was collected after each PET/CT scan (approximately 55, 160, 250 min), and venous blood samples were collected at 40, 145 and 235 min, post-injection, as shown in FIG. 13. Blood samples (3-4 mL) were collected in heparinized tubes and placed on ice. The blood samples were centrifuged at 3000 g for 5 min to obtain plasma. Urine was measured for urine volume and radioactivity concentration as measured in a calibrated gamma counter. Analysis for metabolites in plasma and urine was performed by ion-chromatography HPLC, allowing estimation of the fraction of radioactivity as nonmetabolized ^18F-TFB.

[3] = Radiation dosimetry estimation (organ residence times, OLINDA); assay type: in vivo, human; settings: females
Experimental: Radiation dosimetry estimates were calculated from organ residence times using OLINDA software (Ver. 1.1), assuming a bladder voiding interval of 3.5 h. Gender-specific organ masses for the conversion of SUV to disintegrations per organ per unit radioactivity administered (Bq-hr/Bq) were taken from Schlein et al. (15).
Bladder residence time was estimated by the bladder emptying model within the OLINDA software, assuming a 3.5 h bladder voiding period. The dose-critical organ is thyroid, with dose estimates of 0.26 and 0.36 mSv/MBq in males and females, respectively. […] Effective dose was higher in females (0.065 mSv/MBq) relative to males (0.036 mSv/MBq).

With `F[B-](F)(F)[18F]` [^18F-TFB, ^18F-tetrafluoroborate] the “HPLC analysis of the product sample, ^18F-TFB peak” value ([1]; after 20 h) was “chemically stable”, the “radiochemical purity by radio-TLC after 20 h” value ([1]; after 20 h, sample diluted with water, silica gel, methanol) was over 96% and the “In vitro RCP” value ([1]; up to 8 h at room temperature, in sterile 0.9% NaCl) was over 96%. The “% Intact ^18F-TFB, Plasma” value ([2]; females, 40 min) was 97 ± 3^c %, the “Plasma (SUV)” value ([2]; females, 40 min) was 3.8 ± 1.0 SUV and the “Whole blood (SUV)” value ([2]; females, 40 min) was 3.1 ± 0.9 SUV. The “Urine (% Dose)” value ([2]; females, 40 min column (urine collected ~10 min later)) was 16 ± 3 % Dose, the “% Intact ^18F-TFB, Urine” value ([2]; females, 40 min column (urine ~10 min later)) was 98 ± 1% and the “Plasma (SUV)” value ([2]; females, 145 min) was 2.1 ± 0.5 SUV. The “Whole blood (SUV)” value ([2]; females, 145 min) was 1.7 ± 0.4 SUV, the “Urine (% Dose)” value ([2]; females, 145 min column (urine collected ~10 min later)) was 18 ± 3^ % Dose and the “% Intact ^18F-TFB, Urine” value ([2]; females, 145 min column (urine ~10 min later)) was 98 ± 1%. For the same compound, the “Plasma (SUV)” value ([2]; females, 235 min) was 1.7 ± 0.5 SUV, the “Whole blood (SUV)” value ([2]; females, 235 min) was 1.4 ± 0.4 SUV and the “Urine (% Dose)” value ([2]; females, 235 min column (urine collected ~10 min later)) was 12 ± 2 % Dose. The “% Intact ^18F-TFB, Urine” value ([2]; females, 235 min column (urine ~10 min later)) was 97 ± 2%, the “Urine (% Dose), Accumulative” value ([2]; females) was 47±7 % Dose and the “% Intact ^18F-TFB, Plasma” value ([2]; males, 40 min) was 97 ± 2%. For the same compound, the “Plasma (SUV)” value ([2]; males, 40 min) was 3.8 ± 0.2 SUV, the “Whole blood (SUV)” value ([2]; males, 40 min) was 3.0 ± 0.2 SUV and the “Urine (% Dose)” value ([2]; males, 40 min column (urine collected ~10 min later)) was 15 ± 2^b % Dose. For the same compound, the “% Intact ^18F-TFB, Urine” value ([2]; males, 40 min column (urine ~10 min later)) was 96 ± 2%, the “Plasma (SUV)” value ([2]; males, 145 min) was 2.8 ± 0.3 SUV and the “Whole blood (SUV)” value ([2]; males, 145 min) was 2.1 ± 0.2 SUV. For the same compound, the “Urine (% Dose)” value ([2]; males, 145 min column (urine collected ~10 min later)) was 13 ± 3 % Dose, the “% Intact ^18F-TFB, Urine” value ([2]; males, 145 min column (urine ~10 min later)) was 97 ± 2% and the “Plasma (SUV)” value ([2]; males, 235 min) was 2.0 ± 0.1 SUV. For the same compound, the “Whole blood (SUV)” value ([2]; males, 235 min) was 1.7 ± 0.2 SUV, the “Urine (% Dose)” value ([2]; males, 235 min column (urine collected ~10 min later)) was 10 ± 2^b % Dose and the “% Intact ^18F-TFB, Urine” value ([2]; males, 235 min column (urine ~10 min later)) was 98 ± 1%. The “Urine (% Dose), Accumulative” value ([2]; males) was 40±4 % Dose and 40 ± 4^b % Dose, the “^18F-labeled metabolites in blood and urine (HPLC)” value ([2]; over the length of the study (4 h)) was “insignificant” and the “radioactivity as metabolically intact ^18F-TFB in plasma” value ([2]; plasma samples at 40 min p.i.) was over 97%. For the same compound, the “Effective Dose” value [3] was 0.065 mSv/MBq and 0.064 mSv/MBq, the “Estimated absorbed radiation dose, Adrenals” value [3] was 0.012 mSv/MBq and the “Estimated absorbed radiation dose, Brain” value [3] was 0.005 mSv/MBq. The “Estimated absorbed radiation dose, Breasts” value [3] was 0.028 mSv/MBq, the “Estimated absorbed radiation dose, Gallbladder Wall” value [3] was 0.022 mSv/MBq and the “Estimated absorbed radiation dose, Heart Wall” value [3] was 0.030 mSv/MBq. The “Estimated absorbed radiation dose, Kidneys” value [3] was 0.052 mSv/MBq, the “Estimated absorbed radiation dose, Liver” value [3] was 0.033 mSv/MBq and the “Estimated absorbed radiation dose, Lower Large Intestine Wall” value [3] was 0.015 mSv/MBq. For the same compound, the “Estimated absorbed radiation dose, Lungs” value [3] was 0.014 mSv/MBq, the “Estimated absorbed radiation dose, Muscle” value [3] was 0.011 mSv/MBq and the “Estimated absorbed radiation dose, Osteogenic Cells” value [3] was 0.009 mSv/MBq. For the same compound, the “Estimated absorbed radiation dose, Ovaries” value [3] was 0.020 mSv/MBq, the “Estimated absorbed radiation dose, Pancreas” value [3] was 0.043 mSv/MBq and the “Estimated absorbed radiation dose, Red Marrow” value [3] was 0.008 mSv/MBq. For the same compound, the “Estimated absorbed radiation dose, Skin” value [3] was 0.004 mSv/MBq, the “Estimated absorbed radiation dose, Small Intestine Wall” value [3] was 0.066 mSv/MBq and the “Estimated absorbed radiation dose, Spleen” value [3] was 0.047 mSv/MBq. The “Estimated absorbed radiation dose, Stomach Wall” value [3] was 0.184 mSv/MBq, the “Estimated absorbed radiation dose, Thymus” value [3] was 0.005 mSv/MBq and the “Estimated absorbed radiation dose, Thyroid” value [3] was 0.36 mSv/MBq. The “Estimated absorbed radiation dose, Total Body” value [3] was 0.011 mSv/MBq, the “Estimated absorbed radiation dose, Upper Large Intestine Wall” value [3] was 0.109 mSv/MBq and the “Estimated absorbed radiation dose, Uterus” value [3] was 0.022 mSv/MBq.
